Reference: ChEMBL document CHEMBL1124230, “Synthesis and anti-HIV activity of different sugar-modified pyrimidine and purine nucleosides” (1988)
pEC50: −log10 of the molar value.

Tests used:
MT4 [1] = assay: Cytotoxic dose required to reduce the viability of normal uninfected MT-4 cells.; assay type: functional; conditions: Homo sapiens, read-out: CD50 (the source's name)
[2] = test system: Human immunodeficiency virus 1; assay: Dose required to inhibit cytopathic effect of human immunodeficiency virus replication in MT-4 cells.; assay type: functional; conditions: Human immunodeficiency virus 1, MT4; read-out: ED50 (the source's name)
MT4 [3] = assay: Ratio of CD50 to ED50 rvaluated for inhibition of HIV replication in MT-4 cells; assay type: functional
[4] = Ratio of CD50 to ED50 evaluated for inhibition of HIV replication in MT-4 cells; assay type: functional, MT4

In the case of `Nc1ncnc2c1ncn2[C@@H]1O[C@H](CO)C[C@@H]1O`, the CC50 (MT4 [1]) was > 500 µM and the pEC50 [2] was < 3.30.
For `Cc1cn([C@H]2C[C@H](N=[N+]=[N-])[C@@H](CO)O2)c(=O)nc1N`, the CC50 (MT4 [1]) was > 1000 µM, the Selectivity index (MT4 [3]) was 555 and the pEC50 [2] was 5.74.
With `[N-]=[N+]=N[C@H]1C[C@H](n2ccc(N)nc2=O)O[C@@H]1CO` the CC50 (MT4 [1]) was 34.1 µM, the Selectivity index (MT4 [3]) was 11 and the pEC50 [2] was 5.51.
For `Nc1ncnc2c1ncn2[C@@H]1O[C@H](CO)[C@H]2O[C@H]21`, the CC50 (MT4 [1]) was > 500 µM and the pEC50 [2] was < 3.30.
With `Nc1ncnc2c1ncn2[C@@H]1O[C@H](CO)[C@@H]2O[C@@H]21` the CC50 (MT4 [1]) was > 100 µM and the pEC50 [2] was < 4.00.
For `CNc1nc(=O)n(C2CC(N=[N+]=[N-])C(CO)O2)cc1C` (stereo not given), the CC50 (MT4 [1]) was > 1000 µM, the Selectivity index (MT4 [3]) was >58 and the pEC50 [2] was 4.76.
In the case of `O=c1ccn([C@H]2C[C@H](F)[C@@H](CO)O2)c(=O)[nH]1`, the CC50 (MT4 [1]) was 16 µM, the Selectivity index (MT4 [3]) was 400 and the pEC50 [2] was 7.40.
In the case of `Nc1ncnc2c1ncn2C1OC(CO)CC1Br` (stereo not given), the CC50 (MT4 [1]) was > 500 µM and the pEC50 [2] was < 3.30.
With `C#CC1C(CO)OC(n2cc(C)c(=O)[nH]c2=O)C1O` (stereo not given) the CC50 (MT4 [1]) was > 500 µM and the pEC50 [2] was < 3.30.
With `Nc1ncnc2c1ncn2C1OC(CO)CC1Cl` (stereo not given) the CC50 (MT4 [1]) was > 500 µM and the pEC50 [2] was < 3.30.
Work on `CC(=O)SC1CC(n2cc(C)c(=O)[nH]c2=O)OC1CO` (stereo not given) yielded a CC50 (MT4 [1]) of 29 µM, a Selectivity index (MT4 [3]) of 1.1 and a pEC50 [2] of 4.57.
For `CNc1ccn(C2CC(N=[N+]=[N-])C(CO)O2)c(=O)n1` (stereo not given), the CC50 (MT4 [1]) was > 1000 µM, the Selectivity index (MT4 [3]) was >1.6 and the pEC50 [2] was 3.22.
For `Nc1nc(N)c2ncn([C@H]3C[C@H](O)[C@@H](CO)O3)c2n1`, the CC50 (MT4 [1]) was > 625 µM and the pEC50 [2] was < 3.90.
For `Cc1cn([C@H]2C[C@H](OC(=S)Oc3ccccc3)[C@@H](CO)O2)c(=O)[nH]c1=O`, the CC50 (MT4 [1]) was > 250 µM and the pEC50 [2] was < 3.60.
With `Nc1nc(O)c2ncn(C3C=CC(CO)O3)c2n1` (stereo not given) the Selectivity index [4] was >2.2, the CC50 (MT4 [1]) was 11 µM and the pEC50 [2] was < 5.30.
In the case of `Cc1cn(C2OC(CO)C(C#N)C2O)c(=O)[nH]c1=O` (stereo not given), the pEC50 [2] was < 3.30.
`Cc1cn([C@H]2C[C@H](SS[C@H]3C[C@H](n4cc(C)c(O)nc4=O)O[C@@H]3CO)[C@@H](CO)O2)c(=O)nc1O` gave a CC50 (MT4 [1]) of 34 µM, a Selectivity index (MT4 [3]) of 2.1 and a pEC50 [2] of 4.80.
In the case of `Cc1ccc(SC2CC(n3cc(C)c(=O)[nH]c3=O)OC2CO)cc1` (stereo not given), the CC50 (MT4 [1]) was 116 µM, the Selectivity index (MT4 [3]) was <1.2 and the pEC50 [2] was < 4.00.
`Nc1nc(N)c2ncn(C3CC(F)C(CO)O3)c2n1` (stereo not given) showed a CC50 (MT4 [1]) of 360 µM, a Selectivity index (MT4 [3]) of 80 and a pEC50 [2] of 5.35.
`Nc1nc(O)c2ncn(C3CC(F)C(CO)O3)c2n1` (stereo not given) gave a Selectivity index [4] of 96, a CC50 (MT4 [1]) of 237 µM and a pEC50 [2] of 5.62.
Work on `CC1=CN(C2CC(N=[N+]=[N-])C(CO)O2)CN=C1NO` (stereo not given) yielded a CC50 (MT4 [1]) of 92 µM, a Selectivity index (MT4 [3]) of 61 and a pEC50 [2] of 5.82.
For `Cc1cn([C@H]2C[C@H](F)[C@@H](CO)O2)c(=O)[nH]c1=O` [ALOVUDINE], the CC50 (MT4 [1]) was 0.197 µM, the Selectivity index (MT4 [3]) was 197 and the pEC50 [2] was 9.00.
For `Nc1ncnc2c1ncn2[C@@H]1O[C@H](CO)C[C@H]1O` [CORDYCEPIN], the CC50 (MT4 [1]) was 45 µM, the Selectivity index (MT4 [3]) was <0.5 and the pEC50 [2] was < 4.30.
For `Nc1ncnc2c1ncn2[C@H]1C[C@H](O)[C@@H](CO)O1` [DEOXYADENOSINE], the CC50 (MT4 [1]) was > 100 µM and the pEC50 [2] was < 4.00.
With `Nc1nc(O)c2ncn([C@H]3C[C@H](O)[C@@H](CO)O3)c2n1` [DEOXYGUANOSINE] the Selectivity index [4] was 3.1, the CC50 (MT4 [1]) was > 500 µM and the pEC50 [2] was 3.80.
In the case of `[N-]=[N+]=N[C@H]1C[C@H](n2ccc(=O)[nH]c2=O)O[C@@H]1CO` [NAVURIDINE], the CC50 (MT4 [1]) was 244 µM, the Selectivity index (MT4 [3]) was 677 and the pEC50 [2] was 6.44.
With `Cc1cn([C@H]2C[C@H](N=[N+]=[N-])[C@@H](CO)O2)c(=O)[nH]c1=O` [ZIDOVUDINE] the CC50 (MT4 [1]) was 20 µM, the Selectivity index (MT4 [3]) was 5000 and the pEC50 [2] was 8.40.
